How the values were obtained:
[1] = target: T1, Mitogen-activated protein kinase 9 (Homo sapiens, UniProt P45984); conditions: at 10 µM
Target sequence in this assay (P45984 whole entry, looked up): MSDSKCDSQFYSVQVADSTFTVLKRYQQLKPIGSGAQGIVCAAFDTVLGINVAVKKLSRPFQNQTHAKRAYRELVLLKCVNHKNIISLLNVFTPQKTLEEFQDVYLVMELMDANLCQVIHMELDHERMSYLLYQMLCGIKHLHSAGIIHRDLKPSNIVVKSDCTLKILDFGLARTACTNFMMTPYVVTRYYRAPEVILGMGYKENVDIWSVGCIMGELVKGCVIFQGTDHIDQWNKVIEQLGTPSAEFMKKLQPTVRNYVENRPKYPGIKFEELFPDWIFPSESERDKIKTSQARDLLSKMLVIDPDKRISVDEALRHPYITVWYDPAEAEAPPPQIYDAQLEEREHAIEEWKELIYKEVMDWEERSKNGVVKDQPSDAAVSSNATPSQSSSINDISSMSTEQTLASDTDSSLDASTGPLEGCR

[2] = target: Serine/threonine-protein kinase B-raf (Homo sapiens) (UniProt P15056); conditions: at 10 µM
[3] = target: Serine/threonine-protein kinase Nek6 (Homo sapiens) (UniProt Q9HC98); experiment: Selectivity interaction (Ambit KINOMEscan and KiNATiv profiling in Jurkat cells) EUB0000090b NEK6; format: cell-based; conditions: at 1 µM
[4] = target: Dual specificity mitogen-activated protein kinase kinase 1 (Homo sapiens, UniProt Q02750); experiment: Selectivity interaction (ActivX KiNativ screen (ex vivo kinase selectivity in human PBMCs)) EUB0001619a MAP2K1; format: cell-based; conditions: PBMC, at 1 µM
Dual specificity mitogen-activated protein kinase kinase 1, sequence (Q02750 whole entry, the tested form may be a part): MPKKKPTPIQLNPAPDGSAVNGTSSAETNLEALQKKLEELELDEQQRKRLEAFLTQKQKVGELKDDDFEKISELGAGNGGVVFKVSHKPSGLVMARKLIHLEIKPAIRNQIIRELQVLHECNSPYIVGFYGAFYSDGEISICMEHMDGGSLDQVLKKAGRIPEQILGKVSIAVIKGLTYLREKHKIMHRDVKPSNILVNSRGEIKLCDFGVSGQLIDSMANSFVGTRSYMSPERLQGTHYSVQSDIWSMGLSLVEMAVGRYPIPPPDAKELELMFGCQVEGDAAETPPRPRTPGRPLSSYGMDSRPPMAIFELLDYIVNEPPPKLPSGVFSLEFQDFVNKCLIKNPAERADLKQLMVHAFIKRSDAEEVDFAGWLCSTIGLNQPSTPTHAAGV

[5] = target: T2, Phosphatidylinositol 3-kinase C2 domain-containing subunit gamma (Homo sapiens) (UniProt O75747); experiment: Selectivity interaction (KinomeScan (DiscoverX)) EUB0000595a PIK3C2G; conditions: at 10 µM
T2 sequence (whole entry): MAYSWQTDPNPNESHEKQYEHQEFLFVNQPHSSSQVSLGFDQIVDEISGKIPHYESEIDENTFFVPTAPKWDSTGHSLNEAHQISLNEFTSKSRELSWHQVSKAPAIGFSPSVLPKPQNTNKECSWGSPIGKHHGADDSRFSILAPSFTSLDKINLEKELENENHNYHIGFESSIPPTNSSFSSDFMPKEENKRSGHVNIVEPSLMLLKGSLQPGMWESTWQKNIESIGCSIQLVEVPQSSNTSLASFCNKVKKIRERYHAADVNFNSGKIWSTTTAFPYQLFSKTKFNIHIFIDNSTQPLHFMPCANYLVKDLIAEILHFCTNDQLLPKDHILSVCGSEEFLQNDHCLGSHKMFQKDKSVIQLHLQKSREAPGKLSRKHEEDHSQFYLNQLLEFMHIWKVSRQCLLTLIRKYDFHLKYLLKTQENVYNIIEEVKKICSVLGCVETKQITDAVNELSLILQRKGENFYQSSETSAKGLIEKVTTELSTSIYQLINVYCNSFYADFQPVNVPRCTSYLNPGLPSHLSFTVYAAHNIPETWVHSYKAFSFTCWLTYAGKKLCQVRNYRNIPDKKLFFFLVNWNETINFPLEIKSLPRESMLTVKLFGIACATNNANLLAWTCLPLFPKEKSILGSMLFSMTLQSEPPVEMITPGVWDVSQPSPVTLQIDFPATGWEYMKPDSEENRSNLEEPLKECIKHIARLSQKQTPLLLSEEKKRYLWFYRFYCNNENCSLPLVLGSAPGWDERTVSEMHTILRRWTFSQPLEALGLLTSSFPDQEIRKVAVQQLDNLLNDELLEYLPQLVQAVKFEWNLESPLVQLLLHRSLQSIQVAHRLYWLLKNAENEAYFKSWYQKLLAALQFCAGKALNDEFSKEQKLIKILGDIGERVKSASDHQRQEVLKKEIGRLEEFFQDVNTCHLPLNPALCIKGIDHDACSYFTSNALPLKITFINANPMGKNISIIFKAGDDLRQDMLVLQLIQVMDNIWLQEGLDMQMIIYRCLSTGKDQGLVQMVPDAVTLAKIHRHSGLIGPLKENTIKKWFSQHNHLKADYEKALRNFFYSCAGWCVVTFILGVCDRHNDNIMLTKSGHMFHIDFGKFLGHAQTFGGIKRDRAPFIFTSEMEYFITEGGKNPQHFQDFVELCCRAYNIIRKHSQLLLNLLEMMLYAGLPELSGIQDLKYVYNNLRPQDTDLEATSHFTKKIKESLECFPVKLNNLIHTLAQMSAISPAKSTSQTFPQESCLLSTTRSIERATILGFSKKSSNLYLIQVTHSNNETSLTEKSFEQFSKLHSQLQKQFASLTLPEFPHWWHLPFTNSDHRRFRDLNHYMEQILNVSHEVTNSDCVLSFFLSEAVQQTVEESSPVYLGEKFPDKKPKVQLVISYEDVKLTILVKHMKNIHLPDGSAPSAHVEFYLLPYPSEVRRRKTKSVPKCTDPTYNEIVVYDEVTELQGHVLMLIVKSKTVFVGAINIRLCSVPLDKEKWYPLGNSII

[6] = target: T1, Mitogen-activated protein kinase 9; experiment: Selectivity interaction (Kinase panel (enzymatic assay)) EUB0000595a MAPK9
Target sequence in this assay (P45984 whole entry): as the sequence (P45984 whole entry, looked up) above

[7] = test system: Tyrosine-protein kinase ABL1 (Homo sapiens), P00519 [H396P]; conditions: at 10 µM
[8] = target: T3, Receptor-interacting serine/threonine-protein kinase 4 (Homo sapiens) (UniProt P57078); experiment: Selectivity interaction (KinomeScan (DiscoverX)) EUB0000229b RIPK4; conditions: at 10 µM
T3 sequence (whole entry): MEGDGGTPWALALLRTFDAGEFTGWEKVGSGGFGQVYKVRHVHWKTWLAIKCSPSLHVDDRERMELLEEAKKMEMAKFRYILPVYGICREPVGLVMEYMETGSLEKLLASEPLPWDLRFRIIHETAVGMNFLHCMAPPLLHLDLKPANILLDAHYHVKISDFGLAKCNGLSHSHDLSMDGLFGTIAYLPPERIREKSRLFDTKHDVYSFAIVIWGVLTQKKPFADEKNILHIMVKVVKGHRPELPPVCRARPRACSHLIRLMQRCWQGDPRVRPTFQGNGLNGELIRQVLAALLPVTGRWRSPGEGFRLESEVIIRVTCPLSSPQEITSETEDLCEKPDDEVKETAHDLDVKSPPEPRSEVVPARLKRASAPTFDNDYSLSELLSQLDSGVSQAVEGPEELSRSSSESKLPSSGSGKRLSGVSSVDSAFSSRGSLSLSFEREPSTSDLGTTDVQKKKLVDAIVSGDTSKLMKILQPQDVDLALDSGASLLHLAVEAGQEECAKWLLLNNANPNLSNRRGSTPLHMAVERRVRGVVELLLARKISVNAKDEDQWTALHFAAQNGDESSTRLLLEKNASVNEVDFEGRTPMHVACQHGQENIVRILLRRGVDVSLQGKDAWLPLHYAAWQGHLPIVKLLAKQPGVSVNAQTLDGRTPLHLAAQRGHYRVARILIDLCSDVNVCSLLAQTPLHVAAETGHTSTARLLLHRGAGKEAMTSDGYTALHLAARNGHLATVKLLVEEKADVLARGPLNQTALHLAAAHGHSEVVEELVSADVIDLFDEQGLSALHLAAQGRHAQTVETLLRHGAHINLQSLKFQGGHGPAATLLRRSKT

[9] = target: Calcium/calmodulin-dependent protein kinase type II subunit alpha (Homo sapiens, UniProt Q9UQM7); experiment: Selectivity interaction (KinomeScan (DiscoverX)) EUB0001049a CAMK2A; conditions: at 1 µM
Calcium/calmodulin-dependent protein kinase type II subunit alpha, sequence (Q9UQM7 whole entry): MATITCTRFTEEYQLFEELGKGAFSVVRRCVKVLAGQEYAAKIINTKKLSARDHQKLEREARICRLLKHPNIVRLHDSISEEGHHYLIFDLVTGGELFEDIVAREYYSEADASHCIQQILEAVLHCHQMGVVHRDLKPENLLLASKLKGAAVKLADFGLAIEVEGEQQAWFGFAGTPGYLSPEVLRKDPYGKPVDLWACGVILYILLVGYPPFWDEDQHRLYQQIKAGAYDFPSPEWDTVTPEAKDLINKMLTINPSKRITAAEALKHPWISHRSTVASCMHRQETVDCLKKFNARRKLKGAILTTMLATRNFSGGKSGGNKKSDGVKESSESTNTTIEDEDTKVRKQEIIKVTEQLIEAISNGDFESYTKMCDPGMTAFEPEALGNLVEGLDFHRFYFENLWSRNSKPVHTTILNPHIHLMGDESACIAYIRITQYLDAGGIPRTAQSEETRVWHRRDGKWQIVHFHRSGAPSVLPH

[10] = target: BDNF/NT-3 growth factors receptor (Homo sapiens) (UniProt Q16620); experiment: Selectivity interaction (KinomeScan (DiscoverX)) EUB0001049a NTRK2; conditions: at 1 µM
BDNF/NT-3 growth factors receptor (Homo sapiens), sequence (Q16620 32-822 limits assumed): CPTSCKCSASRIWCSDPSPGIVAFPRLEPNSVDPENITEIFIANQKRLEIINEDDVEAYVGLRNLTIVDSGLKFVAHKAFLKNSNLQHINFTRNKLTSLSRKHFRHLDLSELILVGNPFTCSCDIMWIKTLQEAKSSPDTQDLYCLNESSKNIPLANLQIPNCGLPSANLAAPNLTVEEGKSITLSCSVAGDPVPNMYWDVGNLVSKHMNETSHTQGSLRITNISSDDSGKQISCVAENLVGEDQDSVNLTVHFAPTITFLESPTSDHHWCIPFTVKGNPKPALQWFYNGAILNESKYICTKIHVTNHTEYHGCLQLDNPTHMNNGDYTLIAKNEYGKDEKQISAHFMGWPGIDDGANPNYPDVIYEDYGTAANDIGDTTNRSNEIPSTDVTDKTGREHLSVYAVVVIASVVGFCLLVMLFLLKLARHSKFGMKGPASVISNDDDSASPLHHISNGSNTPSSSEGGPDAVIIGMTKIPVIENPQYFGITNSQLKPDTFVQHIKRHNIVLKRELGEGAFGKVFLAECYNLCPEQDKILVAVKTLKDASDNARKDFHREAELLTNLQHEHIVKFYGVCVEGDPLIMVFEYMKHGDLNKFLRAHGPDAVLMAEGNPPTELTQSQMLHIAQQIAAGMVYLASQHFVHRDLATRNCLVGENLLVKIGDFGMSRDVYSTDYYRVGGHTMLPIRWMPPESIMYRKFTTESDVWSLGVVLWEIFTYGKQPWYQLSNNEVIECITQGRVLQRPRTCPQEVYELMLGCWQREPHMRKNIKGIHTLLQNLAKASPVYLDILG

[11] = target: Insulin receptor-related protein (Homo sapiens) (UniProt P14616); experiment: Selectivity interaction (KinomeScan (DiscoverX)) EUB0000092b INSRR; conditions: at 10 µM
Insulin receptor-related protein (Homo sapiens), sequence (P14616 27-742 limits assumed): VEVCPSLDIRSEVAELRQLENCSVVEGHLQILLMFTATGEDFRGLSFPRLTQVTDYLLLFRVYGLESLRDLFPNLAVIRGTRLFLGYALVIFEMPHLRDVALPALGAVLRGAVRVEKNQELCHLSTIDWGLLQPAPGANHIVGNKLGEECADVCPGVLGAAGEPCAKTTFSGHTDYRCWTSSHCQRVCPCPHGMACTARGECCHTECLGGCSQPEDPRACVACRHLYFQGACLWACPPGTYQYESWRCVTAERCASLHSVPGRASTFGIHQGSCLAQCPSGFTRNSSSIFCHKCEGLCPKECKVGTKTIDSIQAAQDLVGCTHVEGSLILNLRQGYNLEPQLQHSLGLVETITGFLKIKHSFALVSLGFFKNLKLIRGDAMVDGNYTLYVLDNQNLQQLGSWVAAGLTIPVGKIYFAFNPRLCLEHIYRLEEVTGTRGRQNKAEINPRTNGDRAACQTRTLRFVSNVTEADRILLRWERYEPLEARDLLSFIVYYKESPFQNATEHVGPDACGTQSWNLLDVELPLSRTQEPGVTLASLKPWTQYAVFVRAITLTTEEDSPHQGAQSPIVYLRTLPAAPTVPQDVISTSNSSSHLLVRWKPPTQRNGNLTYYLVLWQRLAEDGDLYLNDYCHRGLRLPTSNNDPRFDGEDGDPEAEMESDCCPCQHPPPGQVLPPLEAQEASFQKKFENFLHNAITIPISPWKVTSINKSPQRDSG
Insulin receptor-related protein (Homo sapiens), sequence (P14616 747-1297 limits assumed): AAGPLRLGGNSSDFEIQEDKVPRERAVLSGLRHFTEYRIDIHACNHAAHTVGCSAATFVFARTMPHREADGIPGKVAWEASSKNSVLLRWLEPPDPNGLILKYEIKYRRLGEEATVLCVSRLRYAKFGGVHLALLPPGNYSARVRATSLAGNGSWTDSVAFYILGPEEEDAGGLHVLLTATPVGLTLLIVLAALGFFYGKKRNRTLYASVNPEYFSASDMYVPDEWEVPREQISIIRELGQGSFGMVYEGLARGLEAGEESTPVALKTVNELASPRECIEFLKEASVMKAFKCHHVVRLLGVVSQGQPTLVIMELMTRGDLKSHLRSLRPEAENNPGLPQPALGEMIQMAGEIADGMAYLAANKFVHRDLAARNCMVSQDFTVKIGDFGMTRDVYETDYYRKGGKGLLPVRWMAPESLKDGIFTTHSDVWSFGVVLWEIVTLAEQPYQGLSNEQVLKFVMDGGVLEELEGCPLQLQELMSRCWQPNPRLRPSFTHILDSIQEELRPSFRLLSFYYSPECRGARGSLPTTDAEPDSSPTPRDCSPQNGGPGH

Serine/threonine-protein kinase B-raf (Homo sapiens), sequence (P15056 whole entry): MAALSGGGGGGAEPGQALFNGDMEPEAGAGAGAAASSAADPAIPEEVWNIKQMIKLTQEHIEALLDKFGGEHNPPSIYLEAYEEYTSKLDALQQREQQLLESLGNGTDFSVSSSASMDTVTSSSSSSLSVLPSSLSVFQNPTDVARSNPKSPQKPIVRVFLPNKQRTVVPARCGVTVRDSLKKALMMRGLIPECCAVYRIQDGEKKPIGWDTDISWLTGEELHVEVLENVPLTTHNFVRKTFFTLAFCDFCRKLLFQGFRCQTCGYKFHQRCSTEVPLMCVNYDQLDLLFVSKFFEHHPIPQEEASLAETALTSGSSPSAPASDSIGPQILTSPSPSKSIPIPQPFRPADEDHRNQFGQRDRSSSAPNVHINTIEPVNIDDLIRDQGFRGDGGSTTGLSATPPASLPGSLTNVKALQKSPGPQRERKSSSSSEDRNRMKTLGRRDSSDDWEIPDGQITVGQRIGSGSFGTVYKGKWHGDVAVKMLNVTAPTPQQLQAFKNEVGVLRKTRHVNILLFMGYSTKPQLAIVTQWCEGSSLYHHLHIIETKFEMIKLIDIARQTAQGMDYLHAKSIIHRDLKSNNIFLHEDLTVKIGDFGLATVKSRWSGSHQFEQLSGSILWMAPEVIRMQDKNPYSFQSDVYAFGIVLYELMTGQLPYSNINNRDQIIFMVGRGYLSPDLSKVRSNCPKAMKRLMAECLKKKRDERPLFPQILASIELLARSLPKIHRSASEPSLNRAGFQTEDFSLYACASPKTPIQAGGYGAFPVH
Serine/threonine-protein kinase Nek6 (Homo sapiens), sequence (Q9HC98 whole entry): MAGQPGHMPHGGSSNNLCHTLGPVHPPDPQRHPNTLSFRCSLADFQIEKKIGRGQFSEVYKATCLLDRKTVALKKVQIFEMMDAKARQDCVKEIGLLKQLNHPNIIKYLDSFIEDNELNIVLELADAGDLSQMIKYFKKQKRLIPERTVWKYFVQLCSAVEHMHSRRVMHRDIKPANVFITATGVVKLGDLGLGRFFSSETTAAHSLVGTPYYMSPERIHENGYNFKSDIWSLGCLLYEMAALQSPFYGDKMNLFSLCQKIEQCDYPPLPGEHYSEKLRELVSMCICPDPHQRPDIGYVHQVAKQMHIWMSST

**Q.** With `CCN(CC)CCCCNc1ncc2cc(-c3cc(OC)cc(OC)c3)c(NC(=O)NC(C)(C)C)nc2n1` as the compound, how does the % of control [1] read?
**A.** The % of control was 100%.

**Q.** What about the % of control [2] of the same compound?
**A.** Its % of control is 100%.

**Q.** `CN(C)C/C=C/C(=O)Nc1ccc(C(=O)N2CCCC(Nc3ncc(Cl)c(-c4c[nH]c5ccccc45)n3)C2)cc1` (stereo unspecified) was tested. Which % of control [3] did it give?
**A.** Its % of control is 95%.

**Q.** For `N#Cc1cccc(-c2c[nH]c3ncnc(N4CCOCC4)c23)c1`, which % of inhibition [4] is on record?
**A.** The % of inhibition was 6%.

**Q.** How did the % of control [5] turn out when `COCC(=O)NC/C=C/c1ccc2ncnc(Nc3ccc(Oc4ccc(C)nc4)c(C)c3)c2c1` [CP-724714] was run?
**A.** The % of control was 24%.

**Q.** What about the IC50 [6] of the same compound?
**A.** Its IC50 is over 10 µM.

**Q.** For `Cc1cc([C@@H](C)Nc2ccccc2C(=O)O)c2nc(N3CCOCC3)cc(=O)n2c1` [AZD-6482], which % of control [7] is on record?
**A.** Its % of control is 87%.

**Q.** For `COc1cc(N(C)c2ccnc3ccc(C(F)(F)F)cc23)cc(OC)c1OC`, which % binding [8] is on record?
**A.** The % binding was 68%.

**Q.** How did the % of control [9] turn out when `COc1cc(Nc2nc(C)cc(-c3cnn4nc(OC)ccc34)n2)cc(C(F)(F)F)c1` was run?
**A.** Its % of control is 85%.

**Q.** And the % of control [10]?
**A.** The % of control was 96%.

**Q.** With `CCC(=O)N1CCN(c2ccc(-n3c(=O)ccc4cnc5ccc(-c6cnc7ccccc7c6)cc5c43)cc2C(F)(F)F)CC1` as the compound, how does the % of control [11] read?
**A.** Its % of control is 100%.
